Active and inactive are the calls of the source. The calls are words filed in the database; no cut-off is given here.
How the values were obtained:
[1] = molecular target: T1, Tyrosine-protein kinase JAK3 (Homo sapiens, UniProt P52333); test: Inhibition of N-terminal GST-tagged human recombinant JAK3 (781 to end residues) extracted from baculovirus infected in Sf9 cells using Poly(4:1 Glu, Tyr) as substrate preincubated for 15 min followed by substrate addition and measured after 1 hr by ADP-Glo kinase assay
T1 sequence (P52333 whole entry): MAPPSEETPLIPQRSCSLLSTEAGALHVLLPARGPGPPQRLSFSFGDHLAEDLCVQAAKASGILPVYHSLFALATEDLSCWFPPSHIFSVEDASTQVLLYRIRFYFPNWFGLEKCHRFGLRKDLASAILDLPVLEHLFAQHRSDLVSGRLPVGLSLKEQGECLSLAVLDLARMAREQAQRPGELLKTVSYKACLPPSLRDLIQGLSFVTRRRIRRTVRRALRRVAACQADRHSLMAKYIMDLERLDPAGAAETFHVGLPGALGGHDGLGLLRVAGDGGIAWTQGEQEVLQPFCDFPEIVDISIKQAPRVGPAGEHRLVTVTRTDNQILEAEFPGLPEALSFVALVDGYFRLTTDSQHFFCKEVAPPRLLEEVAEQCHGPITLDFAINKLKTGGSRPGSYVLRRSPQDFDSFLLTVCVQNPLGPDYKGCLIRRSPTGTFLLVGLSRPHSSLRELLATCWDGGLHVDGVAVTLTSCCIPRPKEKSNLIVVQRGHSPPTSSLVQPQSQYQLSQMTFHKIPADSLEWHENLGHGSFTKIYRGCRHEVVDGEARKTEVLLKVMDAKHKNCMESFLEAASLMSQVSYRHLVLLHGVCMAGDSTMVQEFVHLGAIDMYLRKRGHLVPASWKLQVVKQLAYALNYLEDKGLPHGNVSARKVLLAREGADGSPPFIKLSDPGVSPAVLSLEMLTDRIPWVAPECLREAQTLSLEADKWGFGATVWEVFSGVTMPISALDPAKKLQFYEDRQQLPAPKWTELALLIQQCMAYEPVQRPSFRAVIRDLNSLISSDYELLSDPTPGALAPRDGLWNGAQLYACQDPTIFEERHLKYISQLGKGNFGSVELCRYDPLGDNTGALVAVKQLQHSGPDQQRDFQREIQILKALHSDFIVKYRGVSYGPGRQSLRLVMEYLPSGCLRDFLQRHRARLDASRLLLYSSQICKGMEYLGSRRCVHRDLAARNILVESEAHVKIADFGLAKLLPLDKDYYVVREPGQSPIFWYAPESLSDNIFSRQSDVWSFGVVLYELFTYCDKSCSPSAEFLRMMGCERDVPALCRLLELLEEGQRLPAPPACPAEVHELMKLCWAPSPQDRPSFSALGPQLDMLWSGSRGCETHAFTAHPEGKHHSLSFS

[2] = system: NCI-H2087; test: Inhibition of colony formation in human NCI-H2087 cells at 10 uM incubated for 14 days by crystal violet staining based 2D colony formation assay relative to control; format: functional; settings: NCI-H2087, 336 h, time 14 day
[3] = system: NCI-H2087; test: Induction of apoptosis in human NCI-H2087 cells at 1 to 10 uM incubated for 24 hrs by Annexin V/Propidium iodide staining based analysis; format: functional, cell-based; settings: dose 1-10 µM
[4] = system: NCI-H2087; test: Induction of cell cycle arrest in human NCI-H2087 cells assessed as accumulation of cells at G2/M phase at 1 to 10 uM incubated for 24 hrs by propidium iodide/RNase staining based analysis; format: functional; settings: dose 1-10 µM
[5] = molecular target: Signal transducer and activator of transcription 3 (Homo sapiens) (UniProt P40763); test: Inhibition of STAT3 phosphorylation in human NCI-H2087 cells incubated for 1 hr by Western blot analysis; format: cell-based; settings: dose 1-10 µM
[6] = system: NCI-H1975; test: Inhibition of colony formation in human NCI-H1975 cells at 10 uM incubated for 14 days by crystal violet staining based 2D colony formation assay relative to control; format: functional; settings: NCI-H1975, 336 h, time 14 day
[7] = system: NCI-H1975; test: Antiproliferative activity against human NCI-H1975 cells assessed as cell growth inhibition incubated for 72 hrs by Cell-TiterGlo assay; format: functional
[8] = Antiproliferative activity against mouse Ba/F3-TEL-JAK1 cells assessed as cell growth inhibition incubated for 72 hrs by Cell-TiterGlo assay; format: functional
[9] = system: NCI-H1975; test: Synergistic antiproliferative activity against human NCI-H1975 cells assessed as cell growth inhibition measured after 48 hrs in presence of osimertinib by celltiterglo analysis; format: functional, cell-based
[10] = molecular target: T2, Tyrosine-protein kinase JAK2 (Homo sapiens, UniProt O60674); test: Inhibition of N-terminal GST-tagged human recombinant JAK2 (804 to end residues) extracted from baculovirus infected in Sf9 cells using IGF1Rtide as substrate preincubated for 15 min followed by substrate addition and measured after 1 hr by ADP-Glo kinase assay
[11] = system: NCI-H2087; test: Antiproliferative activity against human NCI-H2087 cells assessed as cell growth inhibition incubated for 72 hrs by Cell-TiterGlo assay; format: functional
[12] = system: BaF3; test: Antiproliferative activity against mouse parental BaF3 cells assessed as cell growth inhibition incubated for 72 hrs by Cell-TiterGlo assay; format: functional
[13] = molecular target: Signal transducer and activator of transcription 3 (Homo sapiens) (UniProt P40763); test: Inhibition of STAT3 phosphorylation in human NCI-H1975 cells incubated for 1 hr by Western blot analysis; format: cell-based; settings: dose 1-10 µM
[14] = system: NCI-H1975; test: Induction of apoptosis in human NCI-H1975 cells at 1 to 10 uM incubated for 24 hrs by Annexin V/Propidium iodide staining based analysis; format: functional, cell-based; settings: dose 1-10 µM
[15] = system: NCI-H1975; test: Induction of cell cycle arrest in human NCI-H1975 cells assessed as accumulation of cells at G2/M phase at 1 to 10 uM incubated for 24 hrs by propidium iodide/RNase staining based analysis; format: functional; settings: dose 1-10 µM
[16] = system: NCI-H2087; test: Inhibition of colony formation in human NCI-H2087 cells at 10 uM incubated for 14 days by crystal violet staining based 2D colony formation assay; format: functional, cell-based; settings: time 14.0 day
[17] = molecular target: Tyrosine-protein kinase JAK1 (Homo sapiens, UniProt P23458); test: Inhibition of N-terminal GST-tagged human recombinant JAK1 (438 to end residues) extracted from baculovirus infected in Sf9 cells using KKHTDDGYMPMSPGVA as substrate preincubated for 15 min followed by substrate addition and measured after 1 hr by ADP-Glo kinase assay
[18] = system: NCI-H1975; test: Inhibition of colony formation in human NCI-H1975 cells at 10 uM incubated for 14 days by crystal violet staining based 2D colony formation assay; format: functional, cell-based; settings: time 14.0 day
[19] = molecular target: Non-receptor tyrosine-protein kinase TYK2 (Homo sapiens) (UniProt P29597); test: Inhibition of human TYK2 at 0.1 uM preincubated for 20 min followed by 33P-ATP addition measured after 2 hrs by P81 filter-binding method relative to control; settings: time 140.0 min
[20] = system: NCI-H2087; test: Antiproliferative activity against human NCI-H2087 cells overexpressing JAK1 assessed as suppression of cell growth incubated for 72 hrs by Cell-TiterGlo assay; format: functional, cell-based
[21] = system: NCI-H1975; test: Upregulation of STAT3 phosphorylation level in human NCI-H1975 cells; format: functional, cell-based
[22] = molecular target: T3, Aurora kinase C (Homo sapiens) (UniProt Q9UQB9); test: Inhibition of human Aurora C at 0.1 uM preincubated for 20 min followed by 33P-ATP addition measured after 2 hrs by P81 filter-binding method relative to control; settings: time 140.0 min
T3 sequence (whole entry): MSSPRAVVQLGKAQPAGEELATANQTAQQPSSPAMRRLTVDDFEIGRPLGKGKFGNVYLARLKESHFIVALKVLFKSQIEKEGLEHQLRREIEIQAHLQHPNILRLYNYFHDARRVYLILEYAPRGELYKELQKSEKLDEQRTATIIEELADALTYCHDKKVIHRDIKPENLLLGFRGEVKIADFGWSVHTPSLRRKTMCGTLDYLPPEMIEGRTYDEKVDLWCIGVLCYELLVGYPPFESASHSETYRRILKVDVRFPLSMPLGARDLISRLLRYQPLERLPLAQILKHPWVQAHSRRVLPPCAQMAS

[23] = system: NCI-H1975; test: Antiproliferative activity against human NCI-H1975 cells overexpressing JAK1 assessed as suppression of cell growth incubated for 72 hrs by Cell-TiterGlo assay; format: functional, cell-based
[24] = system: U2OS; test: Antiproliferative activity against human U2OS cells overexpressing JAK1 assessed as suppression of cell growth incubated for 72 hrs by Cell-TiterGlo assay; format: functional, cell-based
[25] = system: NCI-H2087; test: Upregulation of STAT3 phosphorylation level in human NCI-H2087 cells; format: functional, cell-based
[26] = molecular target: T2, Tyrosine-protein kinase JAK2; test: Inhibition of human JAK2 at 0.1 uM preincubated for 20 min followed by 33P-ATP addition measured after 2 hrs by P81 filter-binding method relative to control; settings: time 140.0 min
[27] = system: HCT-116; test: Antiproliferative activity against human HCT-116 cells overexpressing JAK1 assessed as suppression of cell growth incubated for 72 hrs by Cell-TiterGlo assay; format: functional, cell-based
[28] = system: HT-29; test: Antiproliferative activity against human HT-29 cells overexpressing JAK1 assessed as suppression of cell growth incubated for 72 hrs by Cell-TiterGlo assay; format: functional, cell-based
[29] = system: UMUC3; test: Antiproliferative activity against human UMUC3 cells overexpressing JAK1 assessed as suppression of cell growth incubated for 72 hrs by Cell-TiterGlo assay; format: functional, cell-based
[30] = molecular target: T4, Tyrosine-protein kinase JAK3 (Homo sapiens) (UniProt P52333); test: Inhibition of human JAK3 at 0.1 uM preincubated for 20 min followed by 33P-ATP addition measured after 2 hrs by P81 filter-binding method relative to control; settings: time 140.0 min
T4 sequence (whole entry): T1 sequence (P52333 whole entry)

[31] = molecular target: Receptor-type tyrosine-protein kinase FLT3 (Homo sapiens) (UniProt P36888); test: Inhibition of human FLT3 at 0.1 uM preincubated for 20 min followed by 33P-ATP addition measured after 2 hrs by P81 filter-binding method relative to control; settings: time 140.0 min

Chain of Signal transducer and activator of transcription 3 (Homo sapiens) (P40763 whole entry): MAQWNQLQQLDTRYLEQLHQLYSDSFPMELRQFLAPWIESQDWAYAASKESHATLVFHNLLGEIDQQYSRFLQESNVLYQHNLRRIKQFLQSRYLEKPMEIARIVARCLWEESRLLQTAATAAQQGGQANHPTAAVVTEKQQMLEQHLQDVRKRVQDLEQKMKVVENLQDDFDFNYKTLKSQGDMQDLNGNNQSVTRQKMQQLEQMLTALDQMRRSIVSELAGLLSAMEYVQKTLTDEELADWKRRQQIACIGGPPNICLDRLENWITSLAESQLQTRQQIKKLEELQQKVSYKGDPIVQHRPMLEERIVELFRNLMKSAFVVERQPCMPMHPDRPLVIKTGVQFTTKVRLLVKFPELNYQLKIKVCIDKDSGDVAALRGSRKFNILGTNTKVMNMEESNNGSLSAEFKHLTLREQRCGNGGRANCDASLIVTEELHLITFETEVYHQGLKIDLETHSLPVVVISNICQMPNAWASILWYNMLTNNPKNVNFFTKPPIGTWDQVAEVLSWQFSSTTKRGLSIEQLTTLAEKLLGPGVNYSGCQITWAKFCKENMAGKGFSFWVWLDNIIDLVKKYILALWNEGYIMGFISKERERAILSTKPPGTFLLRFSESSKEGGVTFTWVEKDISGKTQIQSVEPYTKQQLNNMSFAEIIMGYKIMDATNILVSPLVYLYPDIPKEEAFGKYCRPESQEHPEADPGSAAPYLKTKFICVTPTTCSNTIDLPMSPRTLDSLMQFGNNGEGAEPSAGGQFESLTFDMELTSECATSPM
T2 sequence (O60674 whole entry): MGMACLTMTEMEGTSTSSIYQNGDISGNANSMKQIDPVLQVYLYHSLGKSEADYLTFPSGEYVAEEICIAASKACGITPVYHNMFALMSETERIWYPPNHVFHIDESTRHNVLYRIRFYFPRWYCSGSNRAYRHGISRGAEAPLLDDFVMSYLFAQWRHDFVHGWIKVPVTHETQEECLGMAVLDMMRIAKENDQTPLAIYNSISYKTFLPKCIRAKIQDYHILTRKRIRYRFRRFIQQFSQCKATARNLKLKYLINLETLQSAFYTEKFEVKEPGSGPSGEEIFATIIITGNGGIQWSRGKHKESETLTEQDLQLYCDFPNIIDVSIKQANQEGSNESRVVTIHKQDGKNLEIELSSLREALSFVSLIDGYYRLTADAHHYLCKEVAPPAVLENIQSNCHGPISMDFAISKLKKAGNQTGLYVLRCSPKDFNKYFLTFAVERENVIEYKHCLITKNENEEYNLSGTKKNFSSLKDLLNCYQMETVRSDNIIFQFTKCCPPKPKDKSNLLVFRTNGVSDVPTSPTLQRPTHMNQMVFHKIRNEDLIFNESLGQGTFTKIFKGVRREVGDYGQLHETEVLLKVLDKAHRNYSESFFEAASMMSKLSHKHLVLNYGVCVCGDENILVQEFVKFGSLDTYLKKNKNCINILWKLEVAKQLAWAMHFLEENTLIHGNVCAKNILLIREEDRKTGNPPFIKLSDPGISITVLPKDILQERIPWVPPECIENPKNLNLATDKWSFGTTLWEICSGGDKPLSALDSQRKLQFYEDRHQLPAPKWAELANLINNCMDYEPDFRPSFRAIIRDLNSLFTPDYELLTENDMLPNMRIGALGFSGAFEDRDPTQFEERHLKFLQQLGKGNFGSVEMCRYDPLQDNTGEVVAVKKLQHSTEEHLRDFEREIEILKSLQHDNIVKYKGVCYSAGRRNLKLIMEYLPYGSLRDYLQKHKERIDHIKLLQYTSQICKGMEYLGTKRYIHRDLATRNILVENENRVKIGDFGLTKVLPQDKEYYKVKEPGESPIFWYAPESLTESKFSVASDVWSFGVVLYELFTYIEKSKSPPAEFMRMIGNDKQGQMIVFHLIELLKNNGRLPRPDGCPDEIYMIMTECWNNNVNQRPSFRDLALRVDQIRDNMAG
Chain of Non-receptor tyrosine-protein kinase TYK2 (Homo sapiens) (P29597 whole entry): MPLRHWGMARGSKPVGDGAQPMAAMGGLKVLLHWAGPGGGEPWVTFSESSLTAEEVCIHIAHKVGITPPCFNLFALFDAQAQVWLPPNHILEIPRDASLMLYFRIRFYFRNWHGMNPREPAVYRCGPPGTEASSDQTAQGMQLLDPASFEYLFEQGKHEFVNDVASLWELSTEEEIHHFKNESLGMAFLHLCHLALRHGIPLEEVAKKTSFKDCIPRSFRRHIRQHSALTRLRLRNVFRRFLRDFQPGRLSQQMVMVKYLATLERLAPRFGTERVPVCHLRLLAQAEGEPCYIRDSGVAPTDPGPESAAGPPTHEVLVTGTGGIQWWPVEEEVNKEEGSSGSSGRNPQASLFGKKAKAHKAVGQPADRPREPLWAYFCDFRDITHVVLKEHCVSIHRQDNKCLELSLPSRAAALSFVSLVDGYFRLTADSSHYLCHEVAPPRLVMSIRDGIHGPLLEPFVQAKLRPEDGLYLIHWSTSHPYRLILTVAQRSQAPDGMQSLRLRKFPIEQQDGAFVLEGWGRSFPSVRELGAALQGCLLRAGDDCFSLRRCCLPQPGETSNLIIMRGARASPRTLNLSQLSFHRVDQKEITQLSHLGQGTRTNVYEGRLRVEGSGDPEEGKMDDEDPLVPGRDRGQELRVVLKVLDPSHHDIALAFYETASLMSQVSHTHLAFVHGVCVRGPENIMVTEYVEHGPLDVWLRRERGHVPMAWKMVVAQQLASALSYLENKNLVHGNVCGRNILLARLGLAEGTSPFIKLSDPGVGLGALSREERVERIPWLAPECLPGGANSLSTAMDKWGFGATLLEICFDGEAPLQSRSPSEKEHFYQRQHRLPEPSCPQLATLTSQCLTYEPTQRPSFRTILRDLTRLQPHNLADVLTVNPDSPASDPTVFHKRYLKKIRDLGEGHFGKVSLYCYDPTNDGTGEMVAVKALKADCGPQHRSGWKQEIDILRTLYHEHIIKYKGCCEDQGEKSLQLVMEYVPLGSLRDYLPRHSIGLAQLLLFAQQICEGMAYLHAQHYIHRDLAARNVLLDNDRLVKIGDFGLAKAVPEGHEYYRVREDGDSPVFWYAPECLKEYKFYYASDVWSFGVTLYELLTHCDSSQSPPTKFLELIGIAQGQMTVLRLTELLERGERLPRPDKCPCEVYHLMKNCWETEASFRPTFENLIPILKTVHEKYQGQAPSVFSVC
Chain of Tyrosine-protein kinase JAK1 (P23458 whole entry): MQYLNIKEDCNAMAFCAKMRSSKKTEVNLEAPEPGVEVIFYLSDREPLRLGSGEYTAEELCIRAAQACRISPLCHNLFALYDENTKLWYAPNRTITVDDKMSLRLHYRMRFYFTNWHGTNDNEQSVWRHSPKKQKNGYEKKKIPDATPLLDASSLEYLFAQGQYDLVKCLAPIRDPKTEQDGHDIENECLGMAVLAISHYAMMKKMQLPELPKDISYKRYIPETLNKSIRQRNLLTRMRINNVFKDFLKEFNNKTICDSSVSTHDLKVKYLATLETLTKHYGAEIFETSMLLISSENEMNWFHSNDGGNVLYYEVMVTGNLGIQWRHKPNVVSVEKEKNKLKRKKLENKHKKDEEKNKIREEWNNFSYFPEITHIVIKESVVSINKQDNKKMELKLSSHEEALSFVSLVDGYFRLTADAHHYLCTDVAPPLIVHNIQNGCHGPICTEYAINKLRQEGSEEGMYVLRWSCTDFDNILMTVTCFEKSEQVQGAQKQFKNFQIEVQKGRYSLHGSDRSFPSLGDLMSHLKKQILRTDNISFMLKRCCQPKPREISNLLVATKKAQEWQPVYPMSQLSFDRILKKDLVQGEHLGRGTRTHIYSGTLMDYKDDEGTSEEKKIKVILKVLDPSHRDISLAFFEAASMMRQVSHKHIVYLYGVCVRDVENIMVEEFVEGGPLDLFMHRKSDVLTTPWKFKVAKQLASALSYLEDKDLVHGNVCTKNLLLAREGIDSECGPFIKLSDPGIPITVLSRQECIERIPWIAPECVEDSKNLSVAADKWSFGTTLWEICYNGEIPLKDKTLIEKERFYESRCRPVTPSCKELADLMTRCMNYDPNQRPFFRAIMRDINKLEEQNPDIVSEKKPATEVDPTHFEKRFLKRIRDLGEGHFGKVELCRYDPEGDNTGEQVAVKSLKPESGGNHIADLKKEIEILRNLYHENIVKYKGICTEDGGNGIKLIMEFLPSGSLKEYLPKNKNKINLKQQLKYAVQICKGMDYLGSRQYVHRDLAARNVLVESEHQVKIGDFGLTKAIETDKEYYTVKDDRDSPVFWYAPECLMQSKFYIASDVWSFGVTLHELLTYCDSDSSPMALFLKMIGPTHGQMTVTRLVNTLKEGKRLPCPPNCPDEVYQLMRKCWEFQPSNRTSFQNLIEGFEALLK

| IC50 [1] | inhibition [5] | GI50 [7] | IC50 [10] | GI50 [11] | inhibition [13] | Compound | inhibition at 10 µM [2] | Activity [3] | Activity [4] | inhibition at 10 µM [6] | GI50 [8] | Activity [9] | GI50 [12] | Activity [14] | Activity [15] | inhibition [16] | inhibition [18] | Activity [20] | Activity [21] | Activity [23] | further results |
| --- | --- | --- | --- | --- | --- | --- | --- | --- | --- | --- | --- | --- | --- | --- | --- | --- | --- | --- | --- | --- | --- |
| 1.6 µM | Dose-dependent-effect | 6.67 µM | 0.759 µM | 5.96 µM | Dose-dependent-effect | COc1nn(C)cc1Nc1ncc2scc(-c3cccc(NC(=O)[C@@H](C)N4CCN(CCO)CC4)c3)c2n1 | 100% | Active | Active | 100% | 0.193 µM | Active | 0.614 µM | Active | Active | – | – | – | – | – | – |
| 1.92 µM | – | 36.7 µM | 0.613 µM | 40.2 µM | – | COc1nn(C)cc1Nc1nccc(-c2c[nH]c3c(NC(=O)[C@@H](C)N4CCN(C)CC4)cccc23)n1 [GOLIDOCITINIB] | – | Active | Active | – | 0.514 µM | Active | 3.67 µM | Active | Active | Active | Active | – | – | – | IC50 [17]: 0.082 µM |
| 4.03 µM | Dose-dependent-effect | 2.46 µM | 3.58 µM | 6.81 µM | Dose-dependent-effect | COc1nn(C)cc1Nc1ncc2scc(-c3cccc(NC(=O)[C@@H](C)N4CCN(C)CC4)c3)c2n1 | 100% | Active | Active | 100% | 0.447 µM | Active | 1.45 µM | Active | Active | – | – | Active | Active | Active | inhibition [19]: 18.1%; inhibition [22]: 83.7%; Activity [24]: Active; Activity [25]: Active; inhibition [26]: 61.8%; Activity [27]: Active; Activity [28]: Active; Activity [29]: Active; inhibition [30]: 15.5%; inhibition [31]: 82.5% |
| 4.9 µM | Dose-dependent-effect | 3.19 µM | 2.75 µM | 5.65 µM | Dose-dependent-effect | Cc1nn(C)cc1Nc1ncc2scc(-c3cccc(NC(=O)[C@@H](C)N4CCN(C)CC4)c3)c2n1 | – | Active | Active | – | 0.45 µM | Active | 2.91 µM | Active | Active | Active | Active | Active | Active | Active | Activity [24]: Active; Activity [25]: Active; Activity [27]: Active; Activity [28]: Active; Activity [29]: Active |
